Consider 54 compounds from patent publication US10233195B2, “Anti-fibrotic pyridinones” (InterMune, Inc., priority 2014, dated 2019).

The subject of assay [1] is TGF-b induced Endothelin-1 production. Nature of the assay: ET-1 assay: inhibitory effect on TGF-b induced endothelin-1 production. The assay is classed as cell-based. As to conditions: Homo sapiens, Fibroblast; fibroblasts, stimulant (TGFb, serum, LPA etc), ET-1 in media by ELISA, 4-parameter fit. In short, it runs like this:
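Fibroblasts (primary human lung/dermal, HFL-1, 3T3) serum-starved 0-48 h, preincubated ~30 min with compound, then stimulated (TGFb, serum or LPA) for 16-48 h. Secreted ET-1 measured by ELISA; EC50 from 4-parameter logistic fit, with CC50 from ATPlite in the same wells.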
On the technique in general: An ELISA detects its analyte on a solid surface through an enzyme-linked reagent.

The subject of assay [2] is Fibroblasts (primary human lung and dermal, HFL-1, 3T3 etc). As to the kind of experiment: Cell proliferation assay (BrdU incorporation). The class given is cell-based. The settings on record: HFL1, stimulant (LPA, TGFb, serum etc), 50% inhibition of the increase of BrdU incorporation. As to the method: Assay of Inhibitory Effect on Cell Proliferation (BrdU Incorporation)
Fibroblasts (primary human lung and dermal, HFL-1, 3T3 etc) were plated on a 96-well plate and serum starved for 24-48 hours. The media were then exchanged for media containing stimulants (LPA, TGFb, serum etc) and cultured further for 16-24 hours before BrdU addition. After culturing for another 8 hours, cells were washed with PBS and the amount of BrdU incorporated into the cells was assayed by absorbance at 450 nm using the Cell proliferation ELISA system (RPN250, Amersham LIFE SCIENCE). The difference between the amount of BrdU incorporated in the stimulant-added well and the amount of BrdU incorporated in the well containing no stimulant represented the amount of BrdU incorporation accelerated by stimulant. The increase of BrdU incorporation without the addition of test compounds was set as 100% and the concentration of compound with 50% inhibition in the increase of BrdU incorporation (IC50 value) was determined. The test compounds were added 0-30 min before stimulant addition.
Compounds of some embodiments were prepared according to synthetic methods described herein and assay data obtained for IC50 for BrdU inhibition. The assay data obtained is presented in Table 3, in which A=less than 50 μM, B=greater than or equal to 50 μM and less than or equal to 200 μM; and C=greater than 200 μM.
On the technique in general: Dividing cells build labelled thymidine or BrdU into new DNA.

pEC50, pIC50: −log10 of the molar value.

For orientation: pEC50 means −log10 of the EC50, conventionally taken in molar units. A higher pEC50 goes with a low EC50. Broadly, the pIC50 is −log10 of the IC50, conventionally taken in molar units. Low readings indicate a high IC50, high ones a low IC50. In turn, `CCn1c(=O)oc2ccc(-c3c[nH]c(=O)cc3C)cc21` [Compound 562] had a pEC50 in assay [1] of over 4.30. This compound also had a pIC50 in assay [2] of over 4.30.
Consider `CCn1c(=O)oc2cc(-c3cn(-c4ccc(OC(F)(F)F)cc4)c(=O)cc3C)ccc21` [Compound 430], for which the negative logarithm of the EC50 (pEC50) in assay [1] is over 4.30. In assay [2], this compound showed a pIC50 of over 4.30.
Turning to `Cn1cc(-c2cn(-c3ccc(OC(F)(F)F)cc3)c(=O)cc2NCc2ccccn2)cn1` [Compound 161], the negative logarithm of the EC50 (pEC50) in assay [1] is over 4.30. Moreover, in assay [2], the pIC50 was over 4.30.
Turning to `Cc1cc(=O)n(-c2ccc(OC(C)C)cc2C)cc1-c1cnn(C)c1` [Compound 234], the pEC50 in assay [1] is under 3.70. The compound also had a pIC50 in assay [2] of under 3.70.
In assay [1], `O=c1c2nccnc2c(-c2ccc(F)cc2)cn1-c1ccc(OC(F)(F)F)cc1` [Compound 46] showed a pEC50 of over 4.30. In assay [2], the pIC50 is over 4.30.
For `CC(C)Oc1ccc(-n2cc(-c3cccc(Cl)c3)ccc2=O)cc1` [Compound 316], in assay [1], the pEC50 was over 4.30. This compound gave a pIC50 in assay [2] of over 4.30.
As to `Cc1cn(-c2ccccc2)c(=O)c2c1CCCC2` [Compound 29], the negative logarithm of the EC50 (pEC50) in assay [1] is 3.70 to 4.30. For the same compound, the pIC50 in assay [2] is under 3.70.
The matching figures for `COc1cccc(-n2cc(C(F)(F)F)ccc2=O)c1` [Compound 276]: under 3.70 and under 3.70.
The matching figures for `CC(C)n1ccc2c(-c3cnn(C)c3)cn(-c3ccc(OC(F)(F)F)cc3)c(=O)c21` [Compound 647]: over 4.30 and over 4.30.
In turn, `CCn1cnc2c(-c3cnn(C)c3)c[nH]c(=O)c21` [Compound 618] gave a pEC50 in assay [1] of 3.70 to 4.30. The same compound gave a negative-log IC50 (pIC50) in assay [2] of 3.70 to 4.30.
Take `CC(C)c1ccc(=O)n(-c2ccccc2)c1` [Compound 285]: the pEC50 in assay [1] was under 3.70. The compound further had a pIC50 in assay [2] of under 3.70.
The compound `Cc1cc(-c2cnn(C)c2)cn(-c2ccccc2)c1=O` [Compound 353] had a pEC50 in assay [1] of 3.70 to 4.30. The negative logarithm of the IC50 (pIC50) in assay [2] is under 3.70.
The matching figures for `CCOc1ccc(-n2cc(-c3ccnnc3)c(C)cc2=O)c(C)c1` [Compound 629]: over 4.30 and under 3.70.
For `Cn1cc(-c2cn(-c3ccc(OC(F)(F)F)cc3)c(=O)cc2NCc2ccc(Cl)cc2Cl)cn1` [Compound 405], the negative logarithm of the EC50 (pEC50) in assay [1] is over 4.30. This compound had a negative logarithm of the IC50 (pIC50) in assay [2] of over 4.30.
As to `CCOc1ccc(-n2cc(-c3ccc(F)cc3)c(OC)cc2=O)c(C)c1` [Compound 119], the pEC50 in assay [1] is over 4.30. The compound further showed a negative logarithm of the IC50 (pIC50) in assay [2] of over 4.30.
In turn, `O=C1COc2c(-c3ccc(F)cc3)cn(-c3ccc(OC(F)(F)F)cc3)c(=O)c2N1` [Compound 52] gave a negative-log EC50 (pEC50) in assay [1] of under 3.70. In assay [2], this compound had a pIC50 of under 3.70.
In assay [1], `Cn1cc(-c2cn(-c3ccc(Cl)cc3)c(=O)c3[nH]ccc23)cn1` [Compound 605] had a negative logarithm of the EC50 (pEC50) of over 4.30. In assay [2], the pIC50 was over 4.30.
As for `Cn1cc(-c2cn(-c3ccc(OC(F)(F)F)cc3)c(=O)c3c2ncn3C)cn1` [Compound 665], in assay [1], the negative logarithm of the EC50 (pEC50) is over 4.30. Besides, in assay [2], the pIC50 was 3.70 to 4.30.
The matching figures for `Cn1cc(-c2cn(-c3ccc(OC(F)(F)F)cc3)c(=O)c3ncn(C)c23)cn1` [Compound 59]: over 4.30 and over 4.30.
On the same counts, the results for `Cn1cnc2c(-c3ccc(F)cc3)cn(-c3ccc(OC(F)(F)F)cc3)c(=O)c21` [Compound 58] are over 4.30 and over 4.30.
Compound `CCn1ccc2ccn(-c3ccc(OC(F)(F)F)cc3)c(=O)c21` [Compound 610] showed a negative-log EC50 (pEC50) in assay [1] of over 4.30. The negative-log IC50 (pIC50) in assay [2] was over 4.30.
In assay [1], `Cn1cc(-c2c[nH]c(=O)cc2NCc2ncccn2)cn1` [Compound 542] showed a negative logarithm of the EC50 (pEC50) of over 4.30. Also, the pIC50 in assay [2] is over 4.30.
In turn, `Cc1cc(=O)n(-c2ccc(OC(F)(F)F)cc2)cc1-c1cn(C)nc1C(F)(F)F` [Compound 238] gave a negative-log EC50 (pEC50) in assay [1] of 3.70 to 4.30. The compound also gave a pIC50 in assay [2] of over 4.30.
Regarding `CS(=O)(=O)n1cc(-c2ccc(=O)n(-c3ccccc3)c2)cn1` [Compound 71], in assay [1], the pEC50 was under 3.70. In assay [2], this compound had a negative logarithm of the IC50 (pIC50) of under 3.70.
Regarding `O=C1COc2c(-c3ccc(F)cc3)cn(-c3ccc(OC(F)(F)F)cc3)c(=O)c2N1Cc1ccccc1` [Compound 51], in assay [1], the pEC50 is under 3.70. This compound gave a pIC50 in assay [2] of under 3.70.
For `Cn1cc(-c2cn(-c3ccc(OC(F)(F)F)cc3)c(=O)cc2Oc2cccc(Cl)c2)cn1` [Compound 413], in assay [1], the pEC50 is over 4.30. In assay [2], this compound gave a pIC50 of over 4.30.
`O=c1c2nccnc2c(-c2cn[nH]c2)cn1-c1ccc(Cl)cc1` [Compound 399] showed a pEC50 in assay [1] of under 3.70. Also, the negative-log IC50 (pIC50) in assay [2] is over 4.30.
The matching figures for `O=c1cc(O)c(-c2ccc(F)cc2)cn1-c1ccc(OC(F)(F)F)cc1` [Compound 86]: 3.70 to 4.30 and over 4.30.
On the same counts, the results for `Cc1cc(=O)n(-c2ccc(OC(F)(F)F)cc2)cc1-c1ccc2c(c1)OCO2` [Compound 202] are 3.70 to 4.30 and over 4.30.
The matching figures for `CCn1cnc2c(-c3cnn(C)c3)cn(-c3ccc(OC(F)(F)F)cc3)c(=O)c21` [Compound 617]: over 4.30 and 3.70 to 4.30.
Take `CCn1nnc2c(-c3cnn(C)c3)cn(-c3ccc(OC(F)(F)F)cc3)c(=O)c21` [Compound 625]: the pEC50 in assay [1] was over 4.30. Also, the negative-log IC50 (pIC50) in assay [2] was over 4.30.
In assay [1], `O=c1ccc(-c2cn[nH]c2)cn1-c1ccc(OC(F)(F)F)cc1` [Compound 374] gave a negative logarithm of the EC50 (pEC50) of over 4.30. The pIC50 in assay [2] was 3.70 to 4.30.
The matching figures for `CNC(=O)Nc1cccc(-n2cc(-c3ccc(F)cc3)c(C)cc2=O)c1` [Compound 419]: 3.70 to 4.30 and 3.70 to 4.30.
The matching figures for `Cn1ccc2c(-c3cn[nH]c3)cn(-c3ccc(C#N)cc3)c(=O)c21` [Compound 600]: over 4.30 and under 3.70.
Take `Cc1nc2c(=O)n(-c3ccc(OC(F)(F)F)cc3)cc(-c3cnn(C)c3)c2o1` [Compound 569]: the negative logarithm of the EC50 (pEC50) in assay [1] is over 4.30. In assay [2], this compound showed a pIC50 of over 4.30.
As for `Cn1cc(-c2cn(-c3ccc(OC(F)(F)F)cc3)c(=O)cc2NCc2ccc(Cl)cc2)cn1` [Compound 406], the pEC50 in assay [1] was 3.70 to 4.30. For the same compound, the pIC50 in assay [2] was over 4.30.
On the same counts, the results for `COCCOCCOCCOc1ccc(-n2cc(C(C)=O)ccc2=O)cc1` [Compound 21] are under 3.70 and under 3.70.
The matching figures for `Cc1cc(=O)n(-c2ccc(OC(F)(F)F)cc2)cc1-c1ccc2scnc2c1` [Compound 251]: over 4.30 and over 4.30.
On the same counts, the results for `Cn1cc(-c2cn(-c3ccc(OC(F)(F)F)cc3)c(=O)c3c2ccn3C2CC2)cn1` [Compound 649] are over 4.30 and 3.70 to 4.30.
In turn, `Cc1ccc(=O)n(-c2cc(F)c(F)c(F)c2)c1` [Compound 282] gave a pEC50 in assay [1] of under 3.70. The compound also had a pIC50 in assay [2] of under 3.70.
`Cc1cc(=O)n(-c2ccc(OC(F)(F)F)cc2)cc1-c1ccc2c(c1)OCCO2` [Compound 201] had a pEC50 in assay [1] of 3.70 to 4.30. The same compound gave a negative logarithm of the IC50 (pIC50) in assay [2] of over 4.30.
On the same counts, the results for `Cc1cc(=O)n(-c2ccc(Cl)cc2)cc1-c1ccnnc1` [Compound 432] are under 3.70 and 3.70 to 4.30.
On the same counts, the results for `O=c1c2[nH]ncc2c(-c2ccc(F)cc2)cn1-c1ccc(OC(F)(F)F)cc1` [Compound 689] are over 4.30 and over 4.30.
On the same counts, the results for `CC(=O)c1ccc(=O)n(-c2ccc(F)cc2)c1` [Compound 13] are under 3.70 and under 3.70.
Regarding `Cn1cc(-c2cn(-c3ccc(OC(F)(F)F)cc3)c(=O)cc2NCc2cncnc2)cn1` [Compound 531], the pEC50 in assay [1] is over 4.30. Also, the pIC50 in assay [2] was over 4.30.
In assay [1], `Cc1cc(=O)n(-c2ccc(NC(N)=O)cc2)cc1-c1ccc(F)cc1` [Compound 418] gave a pEC50 of 3.70 to 4.30. The compound further showed a pIC50 in assay [2] of 3.70 to 4.30.
Take `Cc1cc(=O)n(-c2ccc(OC(F)(F)F)cc2)cc1-c1ccc(F)c(F)c1` [Compound 196]: the negative logarithm of the EC50 (pEC50) in assay [1] was 3.70 to 4.30. This compound also gave a pIC50 in assay [2] of over 4.30.
In assay [1], `O=c1c2nccnc2ccn1-c1ccc(OC(F)(F)F)cc1` [Compound 575] had a pEC50 of over 4.30. In assay [2], this compound gave a pIC50 of over 4.30.
`Cc1cc(=O)n(-c2ccc(Cl)cc2C)cc1-c1cnn(C)c1` [Compound 229] gave a pEC50 in assay [1] of 3.70 to 4.30. For the same compound, the pIC50 in assay [2] is over 4.30.
The matching figures for `CN(Cc1ccccc1)c1cc(=O)n(-c2ccc(OC(F)(F)F)cc2)cc1-c1cnn(C)c1` [Compound 126]: over 4.30 and over 4.30.
The matching figures for `CCOc1ccc(-n2cc(-c3c(C)n[nH]c3C)ccc2=O)c(C)c1` [Compound 387]: 3.70 to 4.30 and 3.70 to 4.30.
For `Cn1cc(-c2cn(-c3ccc(OC(F)(F)F)cc3)c(=O)cc2NCc2cccnn2)cn1` [Compound 664], in assay [2], the pIC50 was over 4.30.
Same read-out and setting: under `CCOc1ccc(-n2cc(-c3ccc(F)cc3)c(OCCOC)cc2=O)c(C)c1` [Compound 551] stands over 4.30; under `CCOc1ccc(-n2cc(-c3cnn(C)c3)c(Cl)cc2=O)c(C)c1` [Compound 538], 3.70 to 4.30.
